Results published in patent publication US20080287541A1, “Kit for Treatment of Cancer” (Redoxia Israel Ltd., priority 2004, published 2008).
Values joined by “and” are separate entries in the source; they are usually repeats but may differ in a detail not shown here. Identical values can stand only once.

Tests used:
various cell lines = conditions: BSO by itself; Dai et al. (1999); cited from earlier work
neuroblastoma cells = conditions: Nicole et al. (1998); cited from earlier work
[1] = tested on: MX-1 mammary carcinoma cells; test: 3H-Thymidine incorporation (proliferation) assay; format: cell-based, human; conditions: positive control, 10^−5 M doxorubicin; negative control = 100%
Description: Test compounds: Tested substances were dissolved in the appropriate medium as follows: carmustine (Sigma) was dissolved in ethanol, disulfiram (DSF) (Sigma) and curcumin (Fluka) were dissolved in dimethyl sulfoxide (DMSO), and DL-buthionine-sulfoximine (BSO) (Fluka) was dissolved in growth medium.
Compounds were added in a 1:10 serial dilution to the wells to obtain range of 10^−3 M to 10^−8 M final concentrations.
Controls: Positive control—10^−5M Doxorubicin. Negative control—Media containing the compound's solvent.
Cell lines: MX-1 mammary carcinoma cells were grown in RPMI-1640 medium, supplemented with 10% FBS, 2 mM L-glutamine, 1% penicillin/streptomycin and 1% non-essential amino acids.
MX-1 culturing and sub-culturing: MX-1 cells were grown in 75 cm^2 culture flasks. The culture medium was changed every other day and the day before the experiment. […]
Thymidine incorporation (proliferation) assay and cells harvesting: 24 hours after administering the compounds, to each well in the culture plates, ^3H-thymidine (NET-027 Thymidine [methyl-^3H] from NEN, 6.7 Ci/mmol) was added to final concentration of 0.4 μCi/well. […] Radioactivity was determined after adding 180 μl scintillation liquid (Microscint 20™, Packard).
Data calculation: The data represent the mean amount of thymidine counted per well (CPM). Average and standard deviation (SD) were calculated for each plate (12 wells). […]

SMILES	decrease in [GSH] in the cell (various cell lines) [%]	decrease of GSH content (neuroblastoma cells) [%]	Cell proliferation rate [1]
CCCCS(=N)(=O)CCC(N)C(=O)O (racemic) [BSO, buthionine sulfoximine]	70	98	–
COc1cccc2c1C(=O)c1c(O)c3c(c(O)c1C2=O)C[C@@](O)(C(=O)CO)C[C@@H]3O[C@H]1C[C@H](N)[C@H](O)[C@H](C)O1 [doxorubicin, Doxorubicin]	–	–	4-11% and 4%
